Blank lines part the entries; values can stand above or below the molecule they belong to. The source made the active and inactive calls. *1 amine or outer side, *2 acyl side, *3 side chain or, on linkers, in order; H or OH if unused. Where a SMILES comes first, the peptide text is derived from it. [ ]: non-standard residue; d: D form. X2 = CCC[C@@H](N[*:1])[C@H](C)C(=O)O[C@H](C(=O)[*:2])[C@@H](C)CC; X1 = CC(N[*:1])C(=O)C(C)(C)C(=O)[*:2]; NMeY = CN[C@@H](Cc1ccc(O)cc1)C(=O)O; NMeL = CN[C@@H](CC(C)C)C(=O)O; NMeV = CN[C@H](C(=O)O)C(C)C; NMeA = CN[C@@H](C)C(=O)O
Assays:
[1] = target: T1, Short transient receptor potential channel 4 (Mus musculus, UniProt Q9QUQ5); assay: block of DAMGO-driven TRPC4 calcium entry – cell-based, HEK293 TRPC4/mu-opioid, Fluo-4 calcium, dose response (AID 434942); assay type: functional;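 note: potency of inhibitors blocking the TRPC4 calcium response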
T1 sequence (Q9QUQ5 whole entry): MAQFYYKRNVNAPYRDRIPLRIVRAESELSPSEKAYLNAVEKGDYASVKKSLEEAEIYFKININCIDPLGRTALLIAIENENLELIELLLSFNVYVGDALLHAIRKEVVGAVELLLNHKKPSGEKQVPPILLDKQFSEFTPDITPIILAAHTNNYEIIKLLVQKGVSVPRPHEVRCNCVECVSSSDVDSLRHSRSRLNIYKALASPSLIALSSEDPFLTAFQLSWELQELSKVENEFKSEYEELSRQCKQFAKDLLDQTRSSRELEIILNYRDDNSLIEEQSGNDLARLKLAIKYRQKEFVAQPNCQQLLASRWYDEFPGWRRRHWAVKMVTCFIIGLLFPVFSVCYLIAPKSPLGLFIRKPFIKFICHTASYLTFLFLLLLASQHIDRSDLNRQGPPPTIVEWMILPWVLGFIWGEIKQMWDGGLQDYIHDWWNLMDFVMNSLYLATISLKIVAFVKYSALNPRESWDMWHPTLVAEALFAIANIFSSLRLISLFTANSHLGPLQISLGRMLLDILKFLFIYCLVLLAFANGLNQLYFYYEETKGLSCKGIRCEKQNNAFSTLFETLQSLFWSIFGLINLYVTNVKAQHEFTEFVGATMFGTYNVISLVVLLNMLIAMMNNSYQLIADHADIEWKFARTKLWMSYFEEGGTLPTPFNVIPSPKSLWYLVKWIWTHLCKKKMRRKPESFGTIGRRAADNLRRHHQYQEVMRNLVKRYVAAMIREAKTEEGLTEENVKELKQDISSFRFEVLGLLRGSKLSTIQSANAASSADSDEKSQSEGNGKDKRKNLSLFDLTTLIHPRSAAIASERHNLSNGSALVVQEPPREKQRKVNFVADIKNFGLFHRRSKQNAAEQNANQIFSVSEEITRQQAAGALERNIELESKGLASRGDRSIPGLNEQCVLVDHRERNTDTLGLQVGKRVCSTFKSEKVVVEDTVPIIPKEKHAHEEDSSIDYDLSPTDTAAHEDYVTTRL

[2] = target: Voltage-dependent T-type calcium channel subunit alpha-1H (Homo sapiens, UniProt O95180); assay type: functional;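 note: channel activity triggered by adding a high calcium stimulation buffer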
[3] = target: T2, Rac GTPase-activating protein 1 (Homo sapiens, UniProt Q9H0H5); assay: blockers of MgcRacGAP-driven Rac1 GTP hydrolysis – biochemical, ADP Hunter fluorescence, primary and confirmatory, confirmation (AID 624330); assay type: functional
T2 sequence (Q9H0H5 whole entry): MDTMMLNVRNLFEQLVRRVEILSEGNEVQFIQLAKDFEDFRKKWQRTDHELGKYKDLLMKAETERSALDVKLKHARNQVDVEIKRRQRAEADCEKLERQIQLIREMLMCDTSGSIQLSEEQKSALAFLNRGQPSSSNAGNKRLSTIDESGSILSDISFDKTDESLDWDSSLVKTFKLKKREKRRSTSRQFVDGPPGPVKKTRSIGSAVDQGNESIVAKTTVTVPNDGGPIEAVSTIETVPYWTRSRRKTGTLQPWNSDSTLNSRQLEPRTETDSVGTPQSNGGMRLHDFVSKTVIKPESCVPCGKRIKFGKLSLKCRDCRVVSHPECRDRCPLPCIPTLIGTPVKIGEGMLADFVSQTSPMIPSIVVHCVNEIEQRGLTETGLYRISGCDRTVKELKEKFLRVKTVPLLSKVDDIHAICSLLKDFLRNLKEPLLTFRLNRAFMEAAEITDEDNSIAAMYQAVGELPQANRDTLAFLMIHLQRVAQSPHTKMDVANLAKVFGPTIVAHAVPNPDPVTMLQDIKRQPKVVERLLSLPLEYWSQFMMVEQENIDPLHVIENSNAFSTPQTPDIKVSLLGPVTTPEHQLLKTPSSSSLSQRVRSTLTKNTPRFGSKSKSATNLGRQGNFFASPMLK

[4] = HEK-293T viability loss after treatment – luminescence, T-cell screen hits, cytotoxicity control for TCR NF-kB inhibitor project, dose response (AID 489026); assay type: functional, cell-based;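 note: cells exposed to compound about 14 hours before the viability readout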
[5] = target: T3, Microphthalmia-associated transcription factor (Homo sapiens, UniProt O75030); assay: reducers of TRPM1 reporter luminescence, concentration series – cell-based, SK-MEL-5, cherry-picked, set 3, MITF inhibitor project, dose response (AID 493073); assay type: functional;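 note: SK-MEL-5 melanoma cells with luciferase driven by the MITF target TRPM1 promoter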
T3 sequence (O75030 whole entry): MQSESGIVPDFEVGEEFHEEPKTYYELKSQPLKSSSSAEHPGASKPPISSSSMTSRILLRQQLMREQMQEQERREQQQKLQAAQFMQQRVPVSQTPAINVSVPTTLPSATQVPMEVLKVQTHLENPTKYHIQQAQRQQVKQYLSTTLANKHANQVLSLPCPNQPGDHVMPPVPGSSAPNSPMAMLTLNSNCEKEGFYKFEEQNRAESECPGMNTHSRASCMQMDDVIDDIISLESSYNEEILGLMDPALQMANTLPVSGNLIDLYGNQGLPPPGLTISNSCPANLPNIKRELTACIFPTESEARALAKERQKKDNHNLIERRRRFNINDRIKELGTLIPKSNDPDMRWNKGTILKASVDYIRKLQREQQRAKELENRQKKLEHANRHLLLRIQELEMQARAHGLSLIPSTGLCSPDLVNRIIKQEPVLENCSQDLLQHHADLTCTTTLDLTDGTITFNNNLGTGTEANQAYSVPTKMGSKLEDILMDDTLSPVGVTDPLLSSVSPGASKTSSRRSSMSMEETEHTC

[6] = target: T1, Short transient receptor potential channel 4; assay: calcium entry via TRPC4 opening agents – cell-based, HEK293 TRPC4/mu-opioid, Fluo-4 calcium, dose response (AID 434937); assay type: functional
[7] = target: T4, DNA repair protein RAD52 homolog (Homo sapiens, UniProt P43351); assay type: functional, biochemical
T4 sequence (P43351 whole entry): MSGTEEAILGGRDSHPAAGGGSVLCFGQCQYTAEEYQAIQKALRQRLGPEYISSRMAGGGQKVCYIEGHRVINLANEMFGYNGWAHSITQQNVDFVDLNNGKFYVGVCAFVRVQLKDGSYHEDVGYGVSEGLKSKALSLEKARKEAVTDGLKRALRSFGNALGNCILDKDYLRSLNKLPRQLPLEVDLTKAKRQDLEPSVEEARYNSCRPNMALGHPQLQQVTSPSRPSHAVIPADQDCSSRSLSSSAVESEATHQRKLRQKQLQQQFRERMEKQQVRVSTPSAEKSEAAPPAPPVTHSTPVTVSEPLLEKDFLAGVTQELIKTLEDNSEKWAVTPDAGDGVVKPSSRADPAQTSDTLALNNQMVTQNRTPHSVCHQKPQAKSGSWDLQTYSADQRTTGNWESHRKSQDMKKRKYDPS

[8] = Trypanosoma cruzi growth suppression in host cells – NIH3T3 host cells, beta-gal luminescence, confirmation (AID 2044); assay type: functional, cell-based;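 note: intracellular parasites grown in NIH/3T3 mouse fibroblasts as host cells; luminescent beta-galactosidase reporter signal from transgenic T. cruzi replicating inside host cells; inhibitors lower the luminescence signal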
[9] = NIH3T3 cell viability loss – ATP luminescence, mouse fibroblasts, counter-screen, dose response (AID 2010); assay type: functional, cell-based;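 note: cells exposed to compound for about 90 hours before reading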
BJ [10] = assay: BJ-TERT fibroblast viability loss – cell-based, RAS-independent, luminescence, dose response (AID 1933); assay type: functional; conditions: Homo sapiens
BJ [11] = assay: cells; assay type: functional, cell-based; conditions: Homo sapiens
BJ [12] = assay: BJ-TERT-LT-ST fibroblast viability loss – cell-based, RAS-independent, luminescence, dose response (AID 1935); assay type: functional; conditions: Homo sapiens;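 note: BJ fibroblasts immortalized with TERT plus LT and ST oncogenes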
[13] = DRD fibroblast viability loss – cell-based, non-viral oncogenic, luminescence, dose response (AID 1934); assay type: functional; conditions: Homo sapiens

Voltage-dependent T-type calcium channel subunit alpha-1H, sequence (O95180 whole entry): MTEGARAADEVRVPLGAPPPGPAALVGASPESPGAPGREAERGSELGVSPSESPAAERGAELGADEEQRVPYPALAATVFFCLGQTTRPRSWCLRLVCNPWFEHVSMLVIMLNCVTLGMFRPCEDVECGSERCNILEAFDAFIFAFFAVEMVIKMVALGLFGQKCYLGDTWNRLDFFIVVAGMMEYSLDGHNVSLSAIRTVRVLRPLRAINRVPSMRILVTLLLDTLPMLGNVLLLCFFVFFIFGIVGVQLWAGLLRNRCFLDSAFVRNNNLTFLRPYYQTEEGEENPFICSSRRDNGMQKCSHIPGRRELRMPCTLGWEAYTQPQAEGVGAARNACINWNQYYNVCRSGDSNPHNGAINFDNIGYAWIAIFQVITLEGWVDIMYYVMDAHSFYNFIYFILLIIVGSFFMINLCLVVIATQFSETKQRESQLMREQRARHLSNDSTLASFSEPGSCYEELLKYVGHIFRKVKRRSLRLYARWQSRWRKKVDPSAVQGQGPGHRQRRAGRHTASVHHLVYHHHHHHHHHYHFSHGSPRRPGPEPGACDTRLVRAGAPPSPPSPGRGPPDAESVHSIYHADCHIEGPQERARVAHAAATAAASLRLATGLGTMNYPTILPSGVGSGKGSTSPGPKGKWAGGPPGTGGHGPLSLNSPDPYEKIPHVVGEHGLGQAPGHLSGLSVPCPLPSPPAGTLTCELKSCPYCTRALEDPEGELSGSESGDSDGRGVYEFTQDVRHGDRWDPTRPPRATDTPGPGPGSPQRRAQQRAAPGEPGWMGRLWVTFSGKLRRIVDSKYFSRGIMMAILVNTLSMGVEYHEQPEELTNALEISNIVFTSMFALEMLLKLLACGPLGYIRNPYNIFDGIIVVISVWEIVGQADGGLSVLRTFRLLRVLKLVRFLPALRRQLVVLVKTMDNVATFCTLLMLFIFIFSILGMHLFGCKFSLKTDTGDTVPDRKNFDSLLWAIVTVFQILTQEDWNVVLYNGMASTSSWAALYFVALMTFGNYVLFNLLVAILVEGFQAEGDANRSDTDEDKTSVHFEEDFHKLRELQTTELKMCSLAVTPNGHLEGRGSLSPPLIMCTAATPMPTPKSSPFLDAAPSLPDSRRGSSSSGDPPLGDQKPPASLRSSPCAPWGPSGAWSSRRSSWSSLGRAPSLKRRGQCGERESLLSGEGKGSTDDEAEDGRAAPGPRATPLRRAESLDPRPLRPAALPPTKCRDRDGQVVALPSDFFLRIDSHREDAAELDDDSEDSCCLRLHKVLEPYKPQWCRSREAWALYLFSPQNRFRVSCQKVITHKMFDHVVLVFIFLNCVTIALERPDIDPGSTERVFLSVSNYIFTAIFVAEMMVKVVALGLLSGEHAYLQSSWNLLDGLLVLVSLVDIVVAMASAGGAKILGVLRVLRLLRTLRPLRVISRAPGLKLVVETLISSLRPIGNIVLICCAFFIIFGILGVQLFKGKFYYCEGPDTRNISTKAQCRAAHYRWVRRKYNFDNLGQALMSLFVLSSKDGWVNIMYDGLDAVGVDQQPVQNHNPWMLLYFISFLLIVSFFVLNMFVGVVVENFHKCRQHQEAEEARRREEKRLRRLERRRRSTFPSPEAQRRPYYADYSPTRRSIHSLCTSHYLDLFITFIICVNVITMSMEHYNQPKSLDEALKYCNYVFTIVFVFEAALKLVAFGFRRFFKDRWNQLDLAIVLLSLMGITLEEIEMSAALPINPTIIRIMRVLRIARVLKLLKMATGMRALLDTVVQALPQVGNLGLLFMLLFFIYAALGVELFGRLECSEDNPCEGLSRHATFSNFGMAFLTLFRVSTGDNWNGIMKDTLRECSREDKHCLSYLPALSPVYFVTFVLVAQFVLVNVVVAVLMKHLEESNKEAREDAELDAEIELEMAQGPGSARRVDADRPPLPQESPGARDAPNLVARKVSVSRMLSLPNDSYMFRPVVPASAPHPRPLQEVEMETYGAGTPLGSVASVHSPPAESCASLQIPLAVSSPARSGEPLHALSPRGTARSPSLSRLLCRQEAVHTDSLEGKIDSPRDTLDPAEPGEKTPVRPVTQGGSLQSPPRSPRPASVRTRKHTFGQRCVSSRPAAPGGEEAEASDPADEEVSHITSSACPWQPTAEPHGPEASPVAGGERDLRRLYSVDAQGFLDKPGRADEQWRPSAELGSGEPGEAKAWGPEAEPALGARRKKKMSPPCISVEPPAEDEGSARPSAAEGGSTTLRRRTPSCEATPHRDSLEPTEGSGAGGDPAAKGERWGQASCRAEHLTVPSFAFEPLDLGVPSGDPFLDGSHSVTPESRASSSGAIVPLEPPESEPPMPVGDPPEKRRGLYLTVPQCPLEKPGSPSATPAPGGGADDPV

EC50 [1]: 1.5 µM (active)
Compound: O=C(NC1CCCCC1)N1CCN(C(c2ccccc2)c2ccccc2)CC1

EC50 [1]: 2.11 µM (active)
Compound: CCCN(c1nc(C)cc(OC)n1)S(=O)(=O)c1ccccc1

EC50 [1]: 1.88 µM (active)
Compound: c1ccc2c(N3CCCCC3)nc(N3CCOCC3)nc2c1

EC50 [2]: 7.3 µM (active) | IC50 [3]: 204 µM (active)
Compound: CCCCN(C)C(=O)C1CCN(Cc2ccc(OCc3ccccc3)cc2)CC1

EC50 [2]: 97.8 µM (active)
Compound: COCCn1nnnc1C(c1cccs1)N1CCN(c2cccc(C(F)(F)F)c2)CC1 (stereo unspecified)

EC50 [2]: 4.23 µM (active)
Compound: CCC(SC1=N/C(=C/c2ccccc2OC)C(=O)N1c1ccccc1)C(=O)Nc1cc(C)on1 (stereo unspecified)

Compound: CCCN(CCC)C1=CC(=[N+]2CCCC2)CC(C)(C)C1
IC50 [4]: > 80 µM (inactive) | AC50 [5]: 2.02 µM (active)

EC50 [1]: 2.99 µM (active) | EC50 [6]: 6.68 µM (active)
Compound: COc1cccc(-c2nn(-c3ccccc3)cc2CN(C)C(C)c2ccncn2)c1 (stereo unspecified)

EC50 [2]: 1.92 µM (active)
Compound: Cc1ccccc1Cn1nc(C)c(NC(=O)c2noc3c2CCc2ccccc2-3)c1C

EC50 [1]: 1.68 µM (active) | AC50 [7]: 4.06 µM (active)
Compound: CCOc1ccc2c(C)nc(NC3=NC(C)=CC(C)(C)N3)nc2c1

EC50 [1]: 2.99 µM (active)
Compound: CCOc1ccccc1N(CC)C(=O)c1nn(C)c2c1CSc1ccccc1-2

EC50 [2]: 4.35 µM (active)
Compound: COc1ccc(-c2noc(CSc3nnc(Cc4ccccc4)n3-c3cccc(C)c3)n2)cc1OC

Compound: Cc1nn(Cc2ccc(Cl)c(Cl)c2)c(C)c1NC(=O)c1cn(-c2ccccc2)nc1-c1ccccc1
EC50 [8]: 1.99 µM (active) | EC50 [9]: > 60 µM (not active) | EC50 [2]: 5.29 µM (active)

Compound: COC(=O)c1[nH]c2c(c1C)C(=O)CC(c1cccc(OC)c1)C2 (stereo unspecified)
EC50 (BJ [10]): 0.773 µM (active) | EC50 (BJ [11]): 1.62 µM (active) | EC50 (BJ [12]): 0.665 µM (active) | EC50 [13]: 0.619 µM (active) | IC50 [4]: > 80 µM (inactive)

Compound: CC(=O)Nc1ccc(S(=O)(=O)N2CCSc3ccccc32)cc1
IC50 [4]: > 80 µM (inactive)

Compound: CCC[C@H]1NC(=O)[C@H](C)N(C)C(=O)C(C)(C)C(=O)C(C)NC(=O)[C@H](Cc2ccc(OC)cc2)N(C)C(=O)[C@H](C(C)C)N(C)C(=O)CNC(=O)[C@H](CC(C)C)N(C)C(=O)CNC(=O)[C@H]([C@@H](C)CC)OC(=O)[C@H]1C (stereo partly specified) (cyclo(G[NMeL]G[NMeV][NMeY](Me)[X1][NMeA][X2]))
IC50 [4]: > 80 µM (inactive)
